Test results published in patent EP3227262B1, “SULFIDE ALKYL AND PYRIDYL REVERSE SULFONAMIDE COMPOUNDS FOR HBV TREATMENT” (Novira Therapeutics Inc., priority 2014, dated 2016).

Legend:
HBV [1] = experiment: HBV replication inhibition assay (encapsidated HBV DNA in supernatant, bDNA QuantiGene); type: cell-based; details: Hepatitis B virus, 144 h, HepG2.2.15 cells, supernatant at day 6, read-out: Extra HBV DNA
HBV [2] = experiment: Inhibition of HBV replication dot-blot assay in HBV-producing hepatoma cell line; type: cell-based; details: Hepatitis B virus, 144 h; activity in Dot-Blot assay; HepG2-2.2.15 cells; reduction in HBV DNA levels, six days
Summary of the method: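 HepG2-2.2.15 confluent monolayers were exposed to a compound dilution series for six days, with medium and compound renewed at day 3. HBV DNA in supernatant/lysate was quantified by dot-blot hybridization, and EC50 was derived from dose-response reduction in HBV DNA.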

Structure (SMILES)	EC50 (HBV [1])	EC50 (HBV [2])
O=C(Nc1ccc(F)c(Cl)c1)c1ccc(F)c(SCC2(CCO)CC2)c1 [Compound 32, N-(3-Chloro-4-fluorophenyl)-4-fluoro-3-(((1-(2-hydroxyethyl)cyclopropyl)methyl)thio)benzamide]	0.41 µM	< 10 µM
O=C(Nc1cc(F)c(F)c(F)c1)c1ccc(F)c(SCC2(CCO)CC2)c1 [Compound 33, 4-Fluoro-3-(((1-(2-hydroxyethyl)cyclopropyl)methyl)thio)-N-(3,4,5-trifluorophenyl)benzamide]	0.62 µM	< 10 µM
O=C(Nc1ccc(F)c(Cl)c1)c1cccc(SC2CCCCC2)c1 [Compound 35, N-(3-Chloro-4-fluorophenyl)-3-(cyclohexylthio)benzamide]	1.21 µM	< 10 µM
O=C(Nc1ccc(F)c(Cl)c1)c1cccc(SCCO)c1 [Compound 36, N-(3-Chloro-4-fluorophenyl)-3-((2-hydroxyethyl)thio)benzamide]	1.34 µM	< 10 µM
O=C(Nc1ccc(F)c(Cl)c1)c1cccc(SC2CCCC2)c1 [Compound 37, N-(3-Chloro-4-fluorophenyl)-3-(cyclopentylthio)benzamide]	1.07 µM	< 10 µM
CS(=O)(=O)NC(=O)[C@H]1CC[C@@H](Sc2cc(C(=O)Nc3cc(F)c(F)c(F)c3)ccc2F)CC1 [Compound 100, 4-Fluoro-3-(((1S,4S)-4-((methylsulfonyl)carbamoyl)cyclohexyl)thio)-N-(3,4,5-trifluorophenyl)benzamide]	1.7 µM	< 10 µM
O=C(Nc1ccc(F)c(Cl)c1)c1cccc(NS(=O)(=O)C2CC2)n1 [Compound 123, N-(3-Chloro-4-fluorophenyl)-6-(cyclopropanesulfonamido)picolinamide]	3 µM	< 10 µM
O=C(Nc1ccc(F)c(Cl)c1)c1ccnc(NS(=O)(=O)C2CC2)c1 [Compound 124, N-(3-Chloro-4-fluorophenyl)-2-(cyclopropanesulfonamido)isonicotinamide]	0.1 µM	< 10 µM
O=C(Nc1ccc(F)c(Cl)c1)c1cncc(NS(=O)(=O)C2CC2)c1 [Compound 125, N-(3-Chloro-4-fluorophenyl)-5-(cyclopropanesulfonamido)nicotinamide]	2.1 µM	< 10 µM
CCc1ccc(CS(=O)(=O)Nc2cc(C(=O)Nc3ccc(F)c(Cl)c3)ccn2)cc1 [Compound 180, N-(3-Chloro-4-fluorophenyl)-2-((4-ethylphenyl)methylsulfonamido)isonicotinamide]	0.3 µM	< 10 µM
CCc1ccc(CS(=O)(=O)Nc2cc(C(=O)Nc3ccc(F)c(F)c3)ccn2)cc1 [Compound 181, N-(3,4-Difluorophenyl)-2-((4-ethylphenyl)methylsulfonamido)isonicotinamide]	0.7 µM	< 10 µM
